# Experimental data: PubChem BioAssay (NCI)
#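 These data come from cells grown in 96-well plates and exposed to compound for 48 hours at five concentrations. At the TGI there is no net growth.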
# Experiments:
# Experiment in all cases: NCI tumour cell line growth inhibition, 48 h
# 786-0 renal = test system: 786-0 renal
# A498 renal = test system: A498 renal
# A549 NSCLC = test system: A549 NSCLC
# ACHN renal = test system: ACHN renal
# BT-549 breast = test system: BT-549 breast
# CAKI-1 renal = test system: CAKI-1 renal
# CCRF-CEM leukemia = test system: CCRF-CEM leukemia
# COLO 205 colon = test system: COLO 205 colon
# DU-145 prostate = test system: DU-145 prostate
# EKVX NSCLC = test system: EKVX NSCLC
# HCC-2998 colon = test system: HCC-2998 colon
# HCT-116 colon = test system: HCT-116 colon
# HCT-15 colon = test system: HCT-15 colon
# HL-60(TB) leukemia = test system: HL-60(TB) leukemia
# HOP-62 NSCLC = test system: HOP-62 NSCLC
# HOP-92 NSCLC = test system: HOP-92 NSCLC
# HS 578T breast = test system: HS 578T breast
# HT29 colon = test system: HT29 colon
# IGROV1 ovarian = test system: IGROV1 ovarian
# K-562 leukemia = test system: K-562 leukemia
# KM12 colon = test system: KM12 colon
# LOX IMVI melanoma = test system: LOX IMVI melanoma
# M14 melanoma = test system: M14 melanoma
# MALME-3M melanoma = test system: MALME-3M melanoma
# MCF7 breast = test system: MCF7 breast
# MDA-MB-435 = test system: MDA-MB-435
# MDA-N = test system: MDA-N
# MOLT-4 leukemia = test system: MOLT-4 leukemia
# NCI-H23 lung = test system: NCI-H23 lung
# NCI-H460 lung = test system: NCI-H460 lung
# NCI-H522 lung = test system: NCI-H522 lung
# NCI/ADR-RES ovarian = test system: NCI/ADR-RES ovarian
# OVCAR-3 ovarian = test system: OVCAR-3 ovarian
# OVCAR-4 ovarian = test system: OVCAR-4 ovarian
# OVCAR-5 ovarian = test system: OVCAR-5 ovarian
# OVCAR-8 ovarian = test system: OVCAR-8 ovarian
# PC-3 prostate = test system: PC-3 prostate
# RPMI-8226 leukemia = test system: RPMI-8226 leukemia
# RXF 393 renal = test system: RXF 393 renal
# SF-268 CNS = test system: SF-268 CNS
# SF-295 CNS = test system: SF-295 CNS
# SF-539 CNS = test system: SF-539 CNS
# SK-MEL-2 melanoma = test system: SK-MEL-2 melanoma
# SK-MEL-28 melanoma = test system: SK-MEL-28 melanoma
# SK-MEL-5 melanoma = test system: SK-MEL-5 melanoma
# SN12C renal = test system: SN12C renal
# SNB-19 CNS = test system: SNB-19 CNS
# SNB-75 CNS = test system: SNB-75 CNS
# SR leukemia = test system: SR leukemia
# SW-620 colon = test system: SW-620 colon
# T-47D breast = test system: T-47D breast
# TK-10 renal = test system: TK-10 renal
# U251 CNS = test system: U251 CNS
# UACC-257 melanoma = test system: UACC-257 melanoma
# UACC-62 melanoma = test system: UACC-62 melanoma
# UO-31 renal = test system: UO-31 renal
# MDA-MB-231 breast = test system: MDA-MB-231 breast
# NCI-H226 lung = test system: NCI-H226 lung
# SK-OV-3 ovarian = test system: SK-OV-3 ovarian
smiles,measurement,setting,value
CC(=O)Oc1ccc2c(c1)CC[C@@H]1C2[C@@H](O[N+](=O)[O-])C[C@@]2(C)C1CC[C@@H]2O[N+](=O)[O-] (some centres not stated),TGI,786-0 renal,28.4 µM
same,TGI,A498 renal,32.8 µM
same,TGI,A549 NSCLC,29.1 µM
same,TGI,ACHN renal,22 µM
same,TGI,BT-549 breast,33.8 µM
same,TGI,CAKI-1 renal,33.6 µM
same,TGI,CCRF-CEM leukemia,38.8 µM
same,TGI,COLO 205 colon,34.2 µM
same,TGI,DU-145 prostate,28.3 µM
same,TGI,EKVX NSCLC,26.6 µM
same,TGI,HCC-2998 colon,25.9 µM
same,TGI,HCT-116 colon,23.2 µM
same,TGI,HCT-15 colon,28.1 µM
same,TGI,HL-60(TB) leukemia,53.6 µM
same,TGI,HOP-62 NSCLC,15.5 µM
same,TGI,HOP-92 NSCLC,23.5 µM
same,TGI,HS 578T breast,47.7 µM
same,TGI,HT29 colon,30.2 µM
same,TGI,IGROV1 ovarian,30.7 µM
same,TGI,K-562 leukemia,32.6 µM
same,TGI,KM12 colon,33.4 µM
same,TGI,LOX IMVI melanoma,28.9 µM
same,TGI,M14 melanoma,31.6 µM
same,TGI,MALME-3M melanoma,28.8 µM
same,TGI,MCF7 breast,22.4 µM
same,TGI,MDA-MB-435,33.5 µM
same,TGI,MDA-N,28.2 µM
same,TGI,MOLT-4 leukemia,38.4 µM
same,TGI,NCI-H23 lung,29.2 µM
same,TGI,NCI-H460 lung,28.7 µM
same,TGI,NCI-H522 lung,25.4 µM
same,TGI,NCI/ADR-RES ovarian,33.6 µM
same,TGI,OVCAR-3 ovarian,28.5 µM
same,TGI,OVCAR-4 ovarian,33.3 µM
same,TGI,OVCAR-5 ovarian,33.7 µM
same,TGI,OVCAR-8 ovarian,33.4 µM
same,TGI,PC-3 prostate,22.9 µM
same,TGI,RPMI-8226 leukemia,31 µM
same,TGI,RXF 393 renal,23.7 µM
same,TGI,SF-268 CNS,29.7 µM
same,TGI,SF-295 CNS,23.7 µM
same,TGI,SF-539 CNS,35.9 µM
same,TGI,SK-MEL-2 melanoma,31.5 µM
same,TGI,SK-MEL-28 melanoma,28.7 µM
same,TGI,SK-MEL-5 melanoma,22.7 µM
same,TGI,SN12C renal,29.5 µM
same,TGI,SNB-19 CNS,32.4 µM
same,TGI,SNB-75 CNS,28.7 µM
same,TGI,SR leukemia,27.7 µM
same,TGI,SW-620 colon,33.1 µM
same,TGI,T-47D breast,26.8 µM
same,TGI,TK-10 renal,35.7 µM
same,TGI,U251 CNS,27.5 µM
same,TGI,UACC-257 melanoma,25.9 µM
same,TGI,UACC-62 melanoma,32.5 µM
same,TGI,UO-31 renal,26.1 µM
Cc1ccc(C(=O)Nc2ccc(CP(=O)(O)O)cc2CP(=O)(O)O)cc1NC(=O)Nc1cc(C(=O)Nc2ccc(CP(=O)(O)O)cc2CP(=O)(O)O)ccc1C,TGI,786-0 renal,> 100 µM
same,TGI,A498 renal,> 100 µM
same,TGI,A549 NSCLC,> 100 µM
same,TGI,ACHN renal,> 100 µM
same,TGI,BT-549 breast,> 100 µM
same,TGI,CAKI-1 renal,> 100 µM
same,TGI,CCRF-CEM leukemia,> 100 µM
same,TGI,COLO 205 colon,> 100 µM
same,TGI,DU-145 prostate,> 100 µM
same,TGI,EKVX NSCLC,> 100 µM
same,TGI,HCC-2998 colon,> 100 µM
same,TGI,HCT-116 colon,> 100 µM
same,TGI,HCT-15 colon,> 100 µM
same,TGI,HL-60(TB) leukemia,> 100 µM
same,TGI,HOP-62 NSCLC,> 100 µM
same,TGI,HS 578T breast,> 100 µM
same,TGI,HT29 colon,> 100 µM
same,TGI,IGROV1 ovarian,> 100 µM
same,TGI,K-562 leukemia,> 100 µM
same,TGI,KM12 colon,> 100 µM
same,TGI,LOX IMVI melanoma,> 100 µM
same,TGI,M14 melanoma,> 100 µM
same,TGI,MALME-3M melanoma,> 100 µM
same,TGI,MCF7 breast,> 100 µM
same,TGI,MDA-MB-231 breast,> 100 µM
same,TGI,MDA-MB-435,> 100 µM
same,TGI,MDA-N,> 100 µM
same,TGI,NCI-H226 lung,> 100 µM
same,TGI,NCI-H23 lung,> 100 µM
same,TGI,NCI-H460 lung,> 100 µM
same,TGI,NCI-H522 lung,> 100 µM
same,TGI,NCI/ADR-RES ovarian,> 100 µM
same,TGI,OVCAR-3 ovarian,> 100 µM
same,TGI,OVCAR-4 ovarian,> 100 µM
same,TGI,OVCAR-5 ovarian,> 100 µM
same,TGI,OVCAR-8 ovarian,> 100 µM
same,TGI,PC-3 prostate,> 100 µM
same,TGI,RPMI-8226 leukemia,> 100 µM
same,TGI,RXF 393 renal,> 100 µM
same,TGI,SF-268 CNS,> 100 µM
same,TGI,SF-295 CNS,> 100 µM
same,TGI,SF-539 CNS,> 100 µM
same,TGI,SK-MEL-2 melanoma,> 100 µM
same,TGI,SK-MEL-28 melanoma,> 100 µM
same,TGI,SK-MEL-5 melanoma,> 100 µM
same,TGI,SK-OV-3 ovarian,> 100 µM
same,TGI,SN12C renal,> 100 µM
same,TGI,SNB-19 CNS,> 100 µM
same,TGI,SNB-75 CNS,> 100 µM
same,TGI,SW-620 colon,> 100 µM
same,TGI,T-47D breast,> 100 µM
same,TGI,TK-10 renal,> 100 µM
same,TGI,U251 CNS,> 100 µM
same,TGI,UACC-257 melanoma,> 100 µM
same,TGI,UACC-62 melanoma,> 100 µM
same,TGI,UO-31 renal,> 100 µM
